According to ChEMBL document CHEMBL4011641, “Prodrugs of Pyrazolo[3,4-d]pyrimidines: From Library Synthesis to Evaluation as Potential Anticancer Agents in an Orthotopic Glioblastoma Model” (J Med Chem, 2017):
≈ marks a conversion by molar mass, not a printed value.

Tests used:
[1] = cells; details: Homo sapiens, U-87 MG, 72 h
Description: Cytotoxicity against human U87 cells assessed as reduction in cell viability after 72 hrs by trypan blue assay

[2] = cells; details: Homo sapiens, U-87 MG, 48 h
Description: Cytotoxicity against human U87 cells assessed as reduction in cell viability after 48 hrs by trypan blue assay

[3] = Drug uptake in BALB/C mouse adipose tissue at 50 mg/kg, ip via bolus administration measured at 24 hrs post dose by UV/LC-MS; assay type: ADME, organism-based; details: in vivo
[4] = system: Brain; experiment: Prodrug conversion in BALB/C mouse brain assessed as N-(3-bromophenyl)-1-(2-chloro-2-phenylethyl)-6-(2-morpholinoethylthio)-1H-pyrazolo[3,4-d]pyrimidin-4-amine formation at 50 mg/kg, ip via bolus administration measured at 24 hrs post dose by UV/LC-MS; assay type: ADME, organism-based; details: in vivo
[5] = system: Plasma; experiment: Prodrug conversion in BALB/C mouse plasma assessed as N-(3-bromophenyl)-1-(2-chloro-2-phenylethyl)-6-(2-morpholinoethylthio)-1H-pyrazolo[3,4-d]pyrimidin-4-amine formation at 50 mg/kg, ip via bolus administration measured at 24 hrs post dose by UV/LC-MS; assay type: ADME, organism-based; details: in vivo
[6] = Drug uptake in cytoplasm of human U87 cells at 20 uM after 2 hrs by UV/LC-MS analysis; assay type: ADME
[7] = system: Brain; experiment: Drug uptake in BALB/C mouse brain at 50 mg/kg, ip via bolus administration measured at 24 hrs post dose by UV/LC-MS analysis; assay type: ADME, organism-based; details: in vivo
[8] = Half life in methanol at 100 uM by UV/LC-MS analysis; assay type: physicochemical
[9] = system: Plasma; experiment: Plasma concentration in BALB/C mouse at 50 mg/kg, ip via bolus administration measured at 24 hrs post dose by UV/LC-MS relative to N-(3-bromophenyl)-1-(2-chloro-2-phenylethyl)-6-(2-morpholinoethylthio)-1H-pyrazolo[3,4-d]pyrimidin-4-amine; assay type: ADME, organism-based; details: in vivo
[10] = AUC (0 to infinity) in BALB/C mouse at 50 mg/kg, ip administered via bolus dose using DMSO formulation measured at 1 to 24 hrs post dose by UV/LC-MS analysis; assay type: ADME, organism-based; parameters: dose 50 mg/kg, time infinity, route intraperitoneal; details: in vivo
[11] = molecular target: T1, Liver carboxylesterase 1 (Homo sapiens, UniProt P23141); experiment: Drug metabolism assessed as human CES1-mediated compound hydrolysis at 10 to 100 uM after 1 hr by UV/HPLC-MS analysis; assay type: ADME
T1 sequence (P23141 whole entry): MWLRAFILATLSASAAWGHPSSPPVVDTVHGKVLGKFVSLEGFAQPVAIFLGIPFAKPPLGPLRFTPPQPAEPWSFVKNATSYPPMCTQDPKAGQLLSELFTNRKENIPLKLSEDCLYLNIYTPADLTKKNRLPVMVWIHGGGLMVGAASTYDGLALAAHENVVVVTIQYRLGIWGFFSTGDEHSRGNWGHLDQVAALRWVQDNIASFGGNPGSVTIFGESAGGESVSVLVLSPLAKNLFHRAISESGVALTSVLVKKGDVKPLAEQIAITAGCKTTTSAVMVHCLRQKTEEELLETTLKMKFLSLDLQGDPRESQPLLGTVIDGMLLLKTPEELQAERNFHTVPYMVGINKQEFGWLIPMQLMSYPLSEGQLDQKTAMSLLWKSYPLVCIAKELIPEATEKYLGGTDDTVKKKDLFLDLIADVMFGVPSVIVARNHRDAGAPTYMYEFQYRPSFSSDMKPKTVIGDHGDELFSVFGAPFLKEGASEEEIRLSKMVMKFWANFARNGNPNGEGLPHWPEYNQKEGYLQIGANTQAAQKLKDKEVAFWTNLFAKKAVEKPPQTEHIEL

[12] = cells; details: Homo sapiens, U-87 MG, 24 h
Description: Cytotoxicity against human U87 cells assessed as reduction in cell viability after 24 hrs by trypan blue assay

[13] = molecular target: Tyrosine-protein kinase ABL1 (Homo sapiens, UniProt P00519)
Chain of Tyrosine-protein kinase ABL1 (P00519 whole entry): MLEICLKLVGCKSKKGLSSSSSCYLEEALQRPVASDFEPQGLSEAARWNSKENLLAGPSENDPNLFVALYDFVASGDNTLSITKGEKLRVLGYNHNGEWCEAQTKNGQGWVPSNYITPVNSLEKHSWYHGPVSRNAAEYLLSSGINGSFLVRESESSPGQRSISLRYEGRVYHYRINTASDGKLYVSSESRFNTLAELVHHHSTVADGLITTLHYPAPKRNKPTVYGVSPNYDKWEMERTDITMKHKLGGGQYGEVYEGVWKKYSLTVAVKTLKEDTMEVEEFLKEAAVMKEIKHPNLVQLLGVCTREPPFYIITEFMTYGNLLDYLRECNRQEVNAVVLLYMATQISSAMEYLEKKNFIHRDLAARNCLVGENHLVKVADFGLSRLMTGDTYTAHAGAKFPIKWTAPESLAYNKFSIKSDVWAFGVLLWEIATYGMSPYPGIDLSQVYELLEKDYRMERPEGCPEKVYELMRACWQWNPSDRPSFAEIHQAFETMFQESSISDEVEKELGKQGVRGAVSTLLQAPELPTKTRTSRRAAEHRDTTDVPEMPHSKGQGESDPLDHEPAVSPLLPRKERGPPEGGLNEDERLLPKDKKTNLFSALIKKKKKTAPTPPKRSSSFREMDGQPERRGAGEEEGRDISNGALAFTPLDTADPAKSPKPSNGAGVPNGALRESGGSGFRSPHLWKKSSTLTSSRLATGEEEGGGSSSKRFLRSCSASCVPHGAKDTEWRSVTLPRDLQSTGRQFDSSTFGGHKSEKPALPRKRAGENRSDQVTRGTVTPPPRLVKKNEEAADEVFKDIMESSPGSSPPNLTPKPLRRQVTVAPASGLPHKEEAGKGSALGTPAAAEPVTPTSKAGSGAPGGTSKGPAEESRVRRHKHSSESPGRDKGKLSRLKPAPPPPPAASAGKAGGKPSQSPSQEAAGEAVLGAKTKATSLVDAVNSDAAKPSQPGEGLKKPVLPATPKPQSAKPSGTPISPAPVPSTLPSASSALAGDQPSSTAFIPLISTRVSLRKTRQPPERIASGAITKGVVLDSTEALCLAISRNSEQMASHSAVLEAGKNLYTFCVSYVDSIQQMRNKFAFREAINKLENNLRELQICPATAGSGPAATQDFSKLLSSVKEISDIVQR
Description: Inhibition of human wild type full length N-terminal GST/6His-tagged ABL (P118 to S535 residues) expressed in Sf9 cells using abltide as substrate after 5 mins in presence of [gamma-32P]ATP by scintillation counting

[14] = MRT in BALB/C mouse at 50 mg/kg, ip administered via bolus dose using DMSO formulation measured at 1 to 24 hrs post dose by UV/LC-MS analysis; assay type: ADME, organism-based; details: in vivo
[15] = Tmax in BALB/C mouse at 50 mg/kg, ip administered via bolus dose using DMSO formulation measured at 1 to 24 hrs post dose by UV/LC-MS analysis; assay type: ADME, organism-based; details: in vivo
[16] = physchem; details: PAMPA
Description: Apparent permeability at 500 uM after 5 hrs by Blood-Brain Barrier-based PAMPA

[17] = Prodrug conversion in BALB/C mouse adipose tissue assessed as N-(3-bromophenyl)-1-(2-chloro-2-phenylethyl)-6-(2-morpholinoethylthio)-1H-pyrazolo[3,4-d]pyrimidin-4-amine formation at 50 mg/kg, ip via bolus administration measured at 24 hrs post dose by UV/LC-MS; assay type: ADME, organism-based; details: in vivo
[18] = physchem; details: aqueous
Description: Aqueous solubility of compound at 1 mg after 24 hrs by UV/LC-MS analysis

[19] = AUC (0 to 24 hrs) in BALB/C mouse at 50 mg/kg, ip administered via bolus dose using DMSO formulation measured at 1 to 24 hrs post dose by UV/LC-MS analysis; assay type: ADME, organism-based; parameters: dose 50 mg/kg, time < 24 hr, route intraperitoneal; details: in vivo
[20] = Prodrug activation in human U87 cells assessed as N-(3-bromophenyl)-1-(2-chloro-2-phenylethyl)-6-(2-morpholinoethylthio)-1H-pyrazolo[3,4-d]pyrimidin-4-amine formation at 20 uM up to 25 hrs by UV/LC-MS analysis; assay type: cell-based; details: u-87mg atcc
[21] = molecular target: Proto-oncogene tyrosine-protein kinase Src (Homo sapiens, UniProt P12931); experiment: biochemical
Chain of Proto-oncogene tyrosine-protein kinase Src (P12931 2-536 limits assumed): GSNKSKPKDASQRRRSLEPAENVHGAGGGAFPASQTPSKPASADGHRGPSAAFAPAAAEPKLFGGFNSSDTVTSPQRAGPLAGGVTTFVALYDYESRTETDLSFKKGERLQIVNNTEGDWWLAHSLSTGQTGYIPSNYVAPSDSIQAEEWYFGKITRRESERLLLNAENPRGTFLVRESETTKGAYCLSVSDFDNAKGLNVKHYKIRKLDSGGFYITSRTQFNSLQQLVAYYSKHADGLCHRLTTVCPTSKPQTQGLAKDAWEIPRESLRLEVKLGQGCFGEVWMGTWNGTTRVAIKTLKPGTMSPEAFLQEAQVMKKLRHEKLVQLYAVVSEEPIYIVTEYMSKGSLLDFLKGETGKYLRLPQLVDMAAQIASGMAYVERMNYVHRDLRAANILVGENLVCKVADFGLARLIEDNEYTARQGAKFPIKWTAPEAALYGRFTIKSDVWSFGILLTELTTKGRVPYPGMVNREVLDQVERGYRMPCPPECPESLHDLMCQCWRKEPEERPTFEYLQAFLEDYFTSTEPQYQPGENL
Description: Inhibition of human wild type full length N-terminal GST/6His-tagged SRC (M1 to L536 residues) expressed in baculovirus infected Sf9 cells using src peptide as substrate after 5 mins in presence of [gamma-32P]ATP by scintillation counting method

[22] = Metabolic stability in human liver microsomes assessed as parent compound remaining at 50 uM after 1 hr in presence of NADPH regenerating system by UV/LC-MS analysis; assay type: ADME, microsome; details: read-out: Stability
[23] = Metabolic stability in mouse liver microsomes assessed as unmetabolized compound remaining at 50 uM after 1 hr in presence of NADPH regenerating system by UV/LC-MS analysis; assay type: ADME, microsome; details: read-out: Stability
[24] = system: Kidney; experiment: Prodrug conversion in BALB/C mouse kidney assessed as N-(3-bromophenyl)-1-(2-chloro-2-phenylethyl)-6-(2-morpholinoethylthio)-1H-pyrazolo[3,4-d]pyrimidin-4-amine formation at 50 mg/kg, ip via bolus administration measured at 24 hrs post dose by UV/LC-MS; assay type: ADME, organism-based; details: in vivo
[25] = Antitumor activity against human U87 cells xenografted in nude immunodeficient CD1 mouse assessed as mean survival time at 50 mg/kg, po administered every other day (reference value: 30 day); assay type: functional, U-87MG ATCC
[26] = Plasma concentration in BALB/C mouse at 50 mg/kg, ip via bolus administration measured at 24 hrs post dose by UV/LC-MS; assay type: ADME, organism-based
[27] = system: Kidney; experiment: Drug uptake in BALB/C mouse kidney at 50 mg/kg, ip via bolus administration measured at 24 hrs post dose by UV/LC-MS; assay type: ADME, organism-based; details: in vivo
[28] = Cmax in BALB/C mouse at 50 mg/kg, ip administered via bolus dose using DMSO formulation measured at 1 to 24 hrs post dose by UV/LC-MS analysis; assay type: ADME, organism-based; parameters: dose 50 mg/kg, route intraperitoneal; details: in vivo
[29] = system: Liver; experiment: Prodrug conversion in BALB/C mouse liver assessed as N-(3-bromophenyl)-1-(2-chloro-2-phenylethyl)-6-(2-morpholinoethylthio)-1H-pyrazolo[3,4-d]pyrimidin-4-amine formation at 50 mg/kg, ip via bolus administration measured at 24 hrs post dose by UV/LC-MS; assay type: ADME, organism-based; details: in vivo
[30] = Plasma clearance in BALB/C mouse at 50 mg/kg, ip administered via bolus dose using DMSO formulation measured at 1 to 24 hrs post dose by UV/LC-MS analysis; assay type: ADME, organism-based
[31] = Half life in PBS buffer at 100 uM at pH 7.4 by UV/LC-MS analysis; assay type: physicochemical
[32] = system: Liver; experiment: Drug uptake in BALB/C mouse liver at 50 mg/kg, ip via bolus administration measured at 24 hrs post dose by UV/LC-MS; assay type: ADME, organism-based; details: in vivo
[33] = physchem; details: PAMPA; remark: listed apart in the source
Description: Apparent permeability at 500 uM after 5 hrs by Gastro-intestinal-based PAMPA

[34] = Half life in BALB/C mouse at 50 mg/kg, ip administered via bolus dose using DMSO formulation measured at 1 to 24 hrs post dose by UV/LC-MS analysis; assay type: ADME, organism-based; details: in vivo
[35] = Drug uptake in cytoplasm of human U87 cells at 20 uM after 5 hrs by UV/LC-MS analysis; assay type: ADME
[36] = Half life in mouse plasma by UV/LC-MS analysis; assay type: ADME, cell-free

Q: Which results are given for `CN1CCN(CCOC(=O)N(c2cccc(Br)c2)c2nc(SCCN3CCOCC3)nc3c2cnn3CC(Cl)c2ccccc2)CC1` (stereo unspecified)?
A: IC50 [1]: 1.8 µM; IC50 [2]: 5.2 µM; Drug uptake [3]: 1.8 nmol/g; Drug metabolism [4]: 5.2 nmol/g; Drug metabolism [5]: 3.3 nmol/mL; Drug uptake [6]: Active; Drug uptake [7]: 6.4 nmol/g; half-life at 100 µM [8]: > 48 h; fold change (FC) [9]: 2; AUC(0-inf) [10]: 265 µM·h; Drug metabolism [11]: Metabolite_Notdetected; IC50 [12]: 7.5 µM; Ki [13]: > 100 µM; MRT [14]: 33.3 h; Tmax [15]: 1 h; Papp at 5 h, 500 µM [16]: 2.91 ×10⁻⁶ cm/s; Drug metabolism [17]: 20.5 nmol/g; solubility at 24 h [18]: 8.7 µg/mL (≈ 11.7 µM); AUC(0-t) at 24 h [19]: 136 µM·h; Drug metabolism [20]: Metabolite_Detected; Ki [21]: > 100 µM; remaining at 1 h, 50 µM [22]: 93.6%; remaining at 1 h, 50 µM [23]: 93.1%; Drug metabolism [24]: 2.6 nmol/g; MST [25]: 49 days; concentration at 24 h [26]: 5.4 µM; Drug uptake [27]: 6.8 nmol/g; Cmax [28]: 8.78 µM; Drug metabolism [29]: 3.6 nmol/g; CL/F [30]: 0.14 mL/min; half-life at 100 µM [31]: > 48 h; Drug uptake [32]: 0.8 nmol/g; Papp at 5 h, 500 µM [33]: 2.13 ×10⁻⁶ cm/s; half-life [34]: 23.8 h; Drug uptake [35]: Active; half-life [36]: 1.16 h
